{"source": "patent US20090182003A1", "about": "“Methods and Compositions for Treatment Cell Proliferative Disorders” (President and Fellows of Harvard College, priority 2006, published 2009)", "key": {"[1]": {"target": "human JAK2 (Homo sapiens, UniProt O60674)", "sequence (O60674 whole entry)": "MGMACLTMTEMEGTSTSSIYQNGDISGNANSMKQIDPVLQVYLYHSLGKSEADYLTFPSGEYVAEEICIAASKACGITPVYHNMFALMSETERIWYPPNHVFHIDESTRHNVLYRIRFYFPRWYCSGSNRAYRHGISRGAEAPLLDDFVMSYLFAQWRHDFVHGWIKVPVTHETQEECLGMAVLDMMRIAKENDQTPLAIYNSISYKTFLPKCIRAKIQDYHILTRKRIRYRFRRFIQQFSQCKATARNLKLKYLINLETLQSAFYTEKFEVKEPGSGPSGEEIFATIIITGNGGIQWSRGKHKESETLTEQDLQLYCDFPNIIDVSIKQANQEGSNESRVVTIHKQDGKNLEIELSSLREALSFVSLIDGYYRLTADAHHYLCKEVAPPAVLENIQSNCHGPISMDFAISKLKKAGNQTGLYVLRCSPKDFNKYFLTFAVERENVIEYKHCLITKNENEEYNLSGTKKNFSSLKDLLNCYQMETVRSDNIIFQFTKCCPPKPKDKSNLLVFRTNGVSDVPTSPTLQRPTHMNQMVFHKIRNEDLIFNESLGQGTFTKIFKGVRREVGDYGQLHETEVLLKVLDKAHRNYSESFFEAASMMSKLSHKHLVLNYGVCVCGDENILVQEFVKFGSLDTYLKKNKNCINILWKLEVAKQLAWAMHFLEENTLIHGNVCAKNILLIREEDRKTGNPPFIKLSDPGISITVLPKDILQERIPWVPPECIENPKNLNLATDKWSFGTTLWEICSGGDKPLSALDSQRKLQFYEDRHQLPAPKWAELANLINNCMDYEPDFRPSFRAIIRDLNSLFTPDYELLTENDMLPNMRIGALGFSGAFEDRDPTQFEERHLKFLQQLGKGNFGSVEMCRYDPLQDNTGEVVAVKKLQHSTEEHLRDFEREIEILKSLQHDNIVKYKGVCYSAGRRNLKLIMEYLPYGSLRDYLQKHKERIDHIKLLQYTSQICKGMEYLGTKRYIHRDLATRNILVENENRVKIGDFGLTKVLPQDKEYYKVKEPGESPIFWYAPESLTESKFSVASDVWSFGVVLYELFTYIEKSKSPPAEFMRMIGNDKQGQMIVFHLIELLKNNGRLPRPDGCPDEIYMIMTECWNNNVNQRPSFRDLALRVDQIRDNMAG", "assay": "Kinase panel screen, JAK2", "format": "biochemical", "conditions": "kinase reaction with 10 or 100 μM ATP"}, "[2]": {"target": "human pim-2 (Homo sapiens, UniProt Q9P1W9)", "sequence (Q9P1W9 whole entry)": "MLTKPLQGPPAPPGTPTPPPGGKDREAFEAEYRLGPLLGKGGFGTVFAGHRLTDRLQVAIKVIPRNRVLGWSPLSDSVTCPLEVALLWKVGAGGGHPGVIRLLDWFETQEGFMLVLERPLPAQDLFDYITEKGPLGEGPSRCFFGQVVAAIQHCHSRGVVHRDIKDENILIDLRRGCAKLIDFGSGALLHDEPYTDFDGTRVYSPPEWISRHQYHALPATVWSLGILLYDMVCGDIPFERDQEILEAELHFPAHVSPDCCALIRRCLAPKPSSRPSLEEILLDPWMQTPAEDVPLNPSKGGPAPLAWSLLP", "assay": "Kinase panel screen, Pim-2", "format": "biochemical", "conditions": "kinase reaction with 10 or 100 μM ATP"}, "[3]": {"target": "Rsk2 (Homo sapiens, UniProt P51812)", "sequence (P51812 whole entry)": "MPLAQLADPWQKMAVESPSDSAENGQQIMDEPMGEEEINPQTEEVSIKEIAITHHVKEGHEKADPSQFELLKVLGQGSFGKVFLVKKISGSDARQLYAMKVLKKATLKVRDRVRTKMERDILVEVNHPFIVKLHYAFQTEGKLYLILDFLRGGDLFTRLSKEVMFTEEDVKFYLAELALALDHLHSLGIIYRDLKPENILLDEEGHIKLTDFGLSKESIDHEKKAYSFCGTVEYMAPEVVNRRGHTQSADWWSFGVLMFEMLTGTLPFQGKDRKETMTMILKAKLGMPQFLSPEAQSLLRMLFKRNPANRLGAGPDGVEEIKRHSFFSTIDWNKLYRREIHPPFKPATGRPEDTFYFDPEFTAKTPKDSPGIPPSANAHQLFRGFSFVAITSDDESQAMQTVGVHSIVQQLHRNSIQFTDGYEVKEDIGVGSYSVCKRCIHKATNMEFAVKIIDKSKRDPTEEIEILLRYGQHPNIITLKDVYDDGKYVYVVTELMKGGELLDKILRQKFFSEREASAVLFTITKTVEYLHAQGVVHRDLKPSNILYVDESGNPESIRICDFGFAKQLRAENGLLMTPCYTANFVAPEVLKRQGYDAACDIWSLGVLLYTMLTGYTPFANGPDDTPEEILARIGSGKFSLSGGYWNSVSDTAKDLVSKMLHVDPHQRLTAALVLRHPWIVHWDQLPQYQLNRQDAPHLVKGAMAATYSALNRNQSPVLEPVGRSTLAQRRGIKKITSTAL", "assay": "Kinase panel screen, Rsk2", "format": "biochemical", "conditions": "20 μM resveratrol"}, "[4]": {"target": "human p70S6K (Homo sapiens, UniProt P23443)", "sequence (P23443 whole entry)": "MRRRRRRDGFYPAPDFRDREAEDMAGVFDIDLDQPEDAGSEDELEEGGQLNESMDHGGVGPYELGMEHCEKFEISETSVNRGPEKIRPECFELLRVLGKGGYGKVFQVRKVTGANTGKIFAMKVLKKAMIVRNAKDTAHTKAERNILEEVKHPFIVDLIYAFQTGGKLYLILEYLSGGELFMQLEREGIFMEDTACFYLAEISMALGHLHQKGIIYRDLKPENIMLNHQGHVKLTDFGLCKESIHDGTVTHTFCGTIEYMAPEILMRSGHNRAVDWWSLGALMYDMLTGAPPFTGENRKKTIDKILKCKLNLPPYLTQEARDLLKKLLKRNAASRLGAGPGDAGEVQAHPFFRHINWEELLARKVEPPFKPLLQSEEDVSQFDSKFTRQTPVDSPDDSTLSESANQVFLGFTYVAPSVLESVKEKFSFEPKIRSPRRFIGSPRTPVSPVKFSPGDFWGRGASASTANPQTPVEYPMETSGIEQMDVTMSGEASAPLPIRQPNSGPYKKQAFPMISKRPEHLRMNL", "assay": "Kinase panel screen, p70S6K", "format": "biochemical", "conditions": "10 or 100 μM ATP; 0.01-100 μM resveratrol"}, "[5]": {"target": "T1, NLK (Homo sapiens, UniProt Q9UBE8)", "T1 sequence (Q9UBE8 1-527)": "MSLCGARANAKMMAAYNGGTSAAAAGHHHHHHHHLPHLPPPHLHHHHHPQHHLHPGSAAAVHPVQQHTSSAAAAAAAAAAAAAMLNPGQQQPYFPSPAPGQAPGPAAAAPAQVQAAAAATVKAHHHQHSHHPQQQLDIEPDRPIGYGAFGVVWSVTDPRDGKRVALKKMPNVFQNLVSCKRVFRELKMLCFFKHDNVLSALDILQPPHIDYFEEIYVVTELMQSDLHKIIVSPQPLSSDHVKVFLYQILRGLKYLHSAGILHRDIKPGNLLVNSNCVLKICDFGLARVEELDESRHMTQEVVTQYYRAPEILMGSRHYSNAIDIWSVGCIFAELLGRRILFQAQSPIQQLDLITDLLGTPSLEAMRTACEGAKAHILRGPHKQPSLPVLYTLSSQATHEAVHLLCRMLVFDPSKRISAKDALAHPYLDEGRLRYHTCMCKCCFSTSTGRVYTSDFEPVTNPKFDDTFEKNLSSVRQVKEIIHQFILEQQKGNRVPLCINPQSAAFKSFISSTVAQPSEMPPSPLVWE", "assay": "Kinase panel screen, NLK", "format": "biochemical", "conditions": "10 μM ATP; 0.01-100 μM resveratrol"}, "[6]": {"target": "Src (Homo sapiens, UniProt P12931)", "sequence (P12931 whole entry, species assumed)": "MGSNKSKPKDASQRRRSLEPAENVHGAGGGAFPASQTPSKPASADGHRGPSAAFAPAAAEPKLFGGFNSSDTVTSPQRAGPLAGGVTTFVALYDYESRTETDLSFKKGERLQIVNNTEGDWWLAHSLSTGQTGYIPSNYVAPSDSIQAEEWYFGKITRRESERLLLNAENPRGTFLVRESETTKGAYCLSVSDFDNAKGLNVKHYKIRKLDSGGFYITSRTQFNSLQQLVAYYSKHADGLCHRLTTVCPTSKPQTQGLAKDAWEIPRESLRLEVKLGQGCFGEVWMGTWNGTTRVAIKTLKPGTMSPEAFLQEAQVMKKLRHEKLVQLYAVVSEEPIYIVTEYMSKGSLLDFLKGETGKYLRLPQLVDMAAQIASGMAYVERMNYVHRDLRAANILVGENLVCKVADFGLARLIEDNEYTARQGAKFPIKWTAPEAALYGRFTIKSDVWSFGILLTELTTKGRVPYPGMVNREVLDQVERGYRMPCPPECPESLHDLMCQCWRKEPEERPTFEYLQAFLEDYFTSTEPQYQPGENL", "assay": "Kinase panel screen, Src", "format": "biochemical", "conditions": "concentration of 20 micromolar"}, "[7]": {"system": "FL5.12 cells", "assay": "Growth inhibition of hematopoietic cell line FL5.12", "format": "cell-based", "conditions": "0.1, 1, 10 and 100 μM, 24 hours, in the presence of IL-3, Coulter cell count", "method": "Hematopoietic cell line FL5.12 cells were seed at equal density and grown in the presence of IL-3, a growth factor. Cells were then treated for 24 hours with 0.1, 1, 10 and 100 μM resveratrol. Cells were counted with a Coulter particle counter to determine cell inhibition by resveratrol."}, "[8]": {"system": "PKC", "assay": "Kinase panel screen, PKC", "conditions": "concentration of 20 micromolar"}, "[9]": {"system": "PI3K", "assay": "Kinase panel screen, PI3K", "conditions": "concentrations up to 20 micromolar"}}, "data": [{"smiles": "Oc1ccc(C=Cc2cc(O)cc(O)c2)cc1", "note": "[resveratrol, 3,5, 4′-trihydroxystilbene]", "values": [{"measurement": "IC50", "setting": "[1]", "value": 1470, "unit": "nM"}, {"measurement": "IC50", "setting": "[2]", "value": 1490, "unit": "nM"}, {"measurement": "inhibition at 20 µM", "setting": "[3]", "value": "~68", "unit": "%"}, {"measurement": "Inhibition of p70S6K (in words)", "setting": "[4]", "value": "specific inhibitor"}, {"measurement": "Inhibition of NLK (in words)", "setting": "[5]", "value": "specific inhibitor"}, {"measurement": "Inhibition of Src (in words)", "setting": "[6]", "value": "either not inhibited or only weakly inhibited"}, {"measurement": "Inhibition of FL5.12 cell growth (in words)", "setting": "[7]", "value": "dose dependent inhibition"}, {"measurement": "Inhibition of PKC (in words)", "setting": "[8]", "value": "either not inhibited or only weakly inhibited"}, {"measurement": "Inhibition of PI3K (in words)", "setting": "[9]", "value": "no inhibition"}]}]}
